Experimental data taken from paper PMC11766601, “A Comparative Study of the In Vitro Intestinal Permeability of Pinnatoxins and Portimine” (Marine Drugs, 2025).

What was measured:
Caco-2 cells = experiment: Trans-epithelial electrical resistance (TEER) of differentiated Caco-2 monolayers; type: cell-based, human; details: 24 h, all of the concentrations (8, 16, 32 ng/mL)
Experimental: (§1) All experiments were performed with human intestinal Caco-2 cells (ATCC-HTB37), acquired from the American Type Culture Collection (ATCC; Manassas, VA, USA). Caco-2 cells originate from a colorectal adenocarcinoma, but upon reaching confluence, they differentiate and express the characteristics of enterocytes. The cells were cultivated in minimum essential medium containing 5.5 mM D-glucose, Earle’s salts, and 2 mM L-alanyl-glutamine (MEM GlutaMAX™, Gibco, Bromont, QC, Canada) supplemented with 10% fetal bovine serum (FBS, Gibco), 1% non-essential amino acids, 50 U/mL penicillin, and 50 μg/mL streptomycin (Gibco) under humidified conditions (37 °C, 5% CO2, 95% humidity). The cells were grown for 3–4 days up to 80% confluence before trypsinization and sub-culture. For the experiments, the cells were seeded in TRANSWELL® plates (12 wells, 0.4 µm pore size; Costar®, Corning Incorporated, Corning, NY, USA) at a density of 90,000 cells/cm^2. Prior to toxin treatment, highly differentiated Caco-2 cells were obtained after 24–26 days of culture, with medium renewal every 2–3 days. Passage numbers between 30 and 40 were used for experiments.
(§2) PnTX-A, PnTX-G, PnTX-E, PnTX-H, and portimine stock solutions were prepared in methanol, while PnTX-F was provided in acetonitrile/acetic acid (50%/0.1%). For each toxin, the cells were incubated at 8, 16, and 32 ng/mL (diluted in HBSS) for 2 h, 6 h, and 24 h, with a final volume of 1.5% solvent. The controls were incubated with the cell culture medium containing the respective solvent of the toxin at 1.5%. Each experiment included three biological replicates. Two to three independent experiments were conducted.
Epithelial integrity was examined by measuring the TEER between the apical and basolateral compartments. After rinsing with a HBSS solution (HBSS, HEPES 5 mM, pH 7.4), the Caco-2 monolayers were equilibrated for 30 min at 37 °C with 300 and 1000 µL HBSS in the apical (A) and basolateral (B) chambers, respectively. Then, the content of the apical compartment was replaced with 500 µL HBSS-containing toxins. TEER was quantified with a Millipore Millicell Electrical Resistance System (ERS Millipore, EMD Millipore Corporation, Burlington, MA, USA). The mean value of two measurements per well before and after the treatment was calculated and multiplied by the surface of the insert to obtain Ω × cm^2. After blank subtraction, the results were presented as a percentage of the solvent control.

mice = details: cited from earlier work
cancer cells = details: observed by several methods; cited from earlier work
[1] = Toxin crossing and apparent permeability across Caco-2 cell monolayers (A to B), LC-MS/MS; type: in vitro ADME, human; details: human, Caco-2, A to B
Experimental: as §1, §2
(§3) The apical and basolateral compartments were collected after 2, 6, and 24 h treatment time. Parts of the solutions that were used to load the apical compartments were also stored (T0) to take into account the real concentration and not the estimated concentration. All the samples were stored at −20 °C until LC/MS analysis.
(§4) The LC-MS/MS analysis of toxins was implemented for the quantitative analysis of toxins. The LC system was an Agilent 1200 (Agilent Technologies, Santa Clara, CA, USA). The chromatographic separation was performed using a column Hypersil GOLD® C18 50 mm × 2.1 mm, 1.9 μm (Thermo Scientific, Waltham, MA, USA). Eluent A consisted of water, and eluent B of acetonitrile/water at a ratio of 95:5 (v/v), with both eluents containing 50 mM formic acid and 2 mM ammonium formate. The LC flow rate was 0.4 mL/min, and the gradient was programmed as follows: 10% B held for 0.5 min, 10–90% B in 5 min, 90% B held for 1 min, 90–10% B in 0.5 min, and 10% B held for 3.0 min, for a total run time of 10 min. The injection volume was 5 μL, while the column temperature was maintained at 40 °C. The column effluent was transferred via a divert valve (Valco Instruments Co., Inc., Houston, TX, USA), either to the mass spectrometer (between 1.7 and 5.5 min) or to waste.
(§5) The detection system was constructed with an API 4000 triple quadrupole mass spectrometer (Sciex, Framingham, MA, USA) equipped with an ElectroSpray Ionization (ESI) source (Turbo V). The mass spectrometer was operated in positive ESI mode. The source temperature was set at 600 °C, and the spray voltage was 5500 V. Air was used as a nebulizer gas and an auxiliary gas, with a gas pressure of 40 and 60 psi, respectively. Meanwhile, the curtain gas and collision gas were nitrogen, with a gas pressure of 15 and 8 psi, respectively. The mass spectrometer was operated in multiple reaction monitoring mode (MRM). One transition was used for quantification (Q) and another as a qualifier transition (q). A mass resolution of 0.7 Da full width at half maximum (FWHD) was set on the first (Q1) and the third (Q3) quadrupoles. Instrument control and data were handled with Analyst software version 1.5.1 (Sciex, Framingham, MA, USA).
(§6) The portimine and PnTX retention times varied between 2.7 and 4.4 min (Figure S1). […]

Caco-2 cell monolayers [2] = experiment: as above; type: in vitro ADME, human; details: for % theoretical amount of toxin crossing the Caco-2 cell monolayers: relative to theoretical loaded concentration; for Percentage of toxin crossing the Caco-2 cell monolayers: A to B, relative to quantified T0
Experimental: as §1, §2, §3, §4, §5, §6

Caco-2 cell monolayers [3] = experiment: Lucifer Yellow paracellular permeability (barrier integrity); type: cell-based, human; details: 24 h, all concentrations (8, 16, 32 ng/mL)
Experimental: as §1, §2
For the assay, both compartments of the insert system were washed with Hank’s balanced salt solution (HBSS). Then, 0.5 mL of 0.1 mg/mL Lucifer Yellow in HBSS buffer and 1 mL of pure HBSS buffer were added to the apical and basolateral compartments, respectively. After a 2 h incubation at 37 °C, the media of the basolateral compartments were collected and the fluorescence of each compartment was measured in triplicate (excitation: 405 nm, emission: 520 nm) with a FLUOstar Optima microplate reader (BMG Labtech, Ortenberg, Germany). After subtraction of the blank (HBSS), the permeability of the […] was calculated against the value obtained for pure LY and reported as % permeability.

C=CC1=CC2C3O[C@]4(CCC(O4)[C@@H](C)C[C@@H](O)C3=O)C[C@H](O)C3=NCC[C@@]32CC1 (stereo partly drawn) [Portimine, portimine]
TEER (Caco-2 cells): 10.02 ± 0.96 % of control value | acute intraperitoneal toxicity (mice): not very toxic | apoptosis induction (cancer cells): induces apoptosis | Papp at 2 h, 8 ng/mL ([1]; 2 h, loaded 8 ng/mL): 5.72 ± 0.91 ×10⁻⁶ cm/s | Papp at 2 h, 16 ng/mL ([1]; 2 h, loaded 16 ng/mL): 9.6 ± 0.55 ×10⁻⁶ cm/s | Papp at 2 h, 32 ng/mL ([1]; 2 h, loaded 32 ng/mL): 14.4 ± 5.27 ×10⁻⁶ cm/s | Papp at 6 h, 8 ng/mL ([1]; 6 h, loaded 8 ng/mL): 15 ± 2.29 ×10⁻⁶ cm/s | Papp at 6 h, 16 ng/mL ([1]; 6 h, loaded 16 ng/mL): 19 ± 349 ×10⁻⁶ cm/s | Papp at 6 h, 32 ng/mL ([1]; 6 h, loaded 32 ng/mL): 24.5 ± 3.01 ×10⁻⁶ cm/s | % theoretical amount of toxin crossing the Caco-2 cell monolayers (Caco-2 cell monolayers [2]; 2 h, 8 ng/mL): 8.50 ± 1.25% | % theoretical amount of toxin crossing the Caco-2 cell monolayers (Caco-2 cell monolayers [2]; 2 h, 16 ng/mL): 13.33 ± 1.69% | % theoretical amount of toxin crossing the Caco-2 cell monolayers (Caco-2 cell monolayers [2]; 2 h, 32 ng/mL): 20.73 ± 7.28% | Percentage of toxin crossing the Caco-2 cell monolayers (Caco-2 cell monolayers [2]; 2 h, loaded 8 ng/mL): 9.23 ± 1.46% | Percentage of toxin crossing the Caco-2 cell monolayers (Caco-2 cell monolayers [2]; 2 h, loaded 16 ng/mL): 15.48 ± 0.89% | Percentage of toxin crossing the Caco-2 cell monolayers (Caco-2 cell monolayers [2]; 2 h, loaded 32 ng/mL): 23.25 ± 6.88% | % theoretical amount of toxin crossing the Caco-2 cell monolayers (Caco-2 cell monolayers [2]; 6 h, 8 ng/mL): 22.33 ± 3.36% | % theoretical amount of toxin crossing the Caco-2 cell monolayers (Caco-2 cell monolayers [2]; 6 h, 16 ng/mL): 26.08 ± 3.00% | % theoretical amount of toxin crossing the Caco-2 cell monolayers (Caco-2 cell monolayers [2]; 6 h, 32 ng/mL): 34.60 ± 4.41% | Percentage of toxin crossing the Caco-2 cell monolayers (Caco-2 cell monolayers [2]; 6 h, loaded 8 ng/mL): 24.23 ± 3.69% | Percentage of toxin crossing the Caco-2 cell monolayers (Caco-2 cell monolayers [2]; 6 h, loaded 16 ng/mL): 30.63 ± 5.62% | Percentage of toxin crossing the Caco-2 cell monolayers (Caco-2 cell monolayers [2]; 6 h, loaded 32 ng/mL): 39.45 ± 4.86% | mechanism of transport from the apical to the basolateral compartment (Caco-2 cell monolayers [2]; inferred from concentration-dependent Papp): passive diffusion | permeability / oral bioavailability class from Caco-2 Papp (Caco-2 cell monolayers [2]; threshold Papp > 1.5 × 10^−6 cm·s^−1 = highly penetrative): high oral bioavailability | effect on LY permeability (Caco-2 cell monolayers [3]): significant increase
